Patent US20060040937A1, “N-aroyl cyclic amines as orexin receptor antagonists” (Glaxo Group Limited, priority 2002, published 2006)
Ends that are not written are not given here.

Tests used:
rat = test: Rat sleep/EEG studies; format: in vivo; settings: central administration at the onset of the normal sleep period
Excerpt: Therefore antagonists of its receptor may be useful in the treatment of sleep disorders including insomnia.

freely-feeding rats = settings: central administration, 4 hour time period; cited from earlier work

## orexin-A: peptide ligand for the orexin-1 receptor, an agonist of the orexin receptors; amino acid sequence printed in b97-b99 (QPLPDCCRQKTCSCRLYELLHGAGNHAAGILTL; ends and bridges not checked; cysteine pairing not given here; UniProt O43612 34-66, looked up)
rat
  effect on arousal (sleep/EEG): dose-related increase in arousal
freely-feeding rats
  increase in food intake over control rats receiving vehicle: approximately four-fold
